Results published in patent publication US20180243317A1, “COMPOSITIONS COMPRISING A PI3K INHIBITOR AND AN HDAC INHIBITOR” (KARUS THERAPEUTICS LTD, priority 2015, published 2018).

How the values were obtained:
Human HDAC1 = molecular target: T1, Human HDAC1 (Homo sapiens, UniProt Q13547); assay: HDAC biochemical assay with acetylated AMC-labeled peptide substrate; settings: read-out: IC50 HDAC 1
T1 construct: full length with C-terminal His-tag and C-terminal FLAG-tag; His-tag (C); FLAG-tag (C); made in house; host or cells: baculovirus expression system
Experimental: (§1) Activity against all zinc-dependent HDACs 1 to 11 was assessed by using an acetylated AMC-labeled peptide substrate. The substrate RHKKAc was used for all class I and IIb HDACs; for HDAC8, the substrate used was RHKAcKAc. […] All assays were based on the AMC-labeled substrate and developer combination.
(§2) The protocol involved a two-step reaction: first, the substrate with the acetylated lysine side chain is incubated with a sample containing HDAC activity, to produce the deacetylated products, which are then digested in the second step by the addition of developer to produce the fluorescent signal proportional to the amount of deacetylated substrates.
Human HDAC1 (GenBank Accession No. NM_004964), full length with C-terminal His-tag and C-terminal FLAG-tag, MW=56 kDa, expressed in baculovirus expression system.
(§3) Before use, 1 mg/mL BSA and DMSO are added.
(§4) Incubate for 2 hours at 30° C.
(§5) Fluorescence background signal is then subtracted from compound data signal.
(§6) Stage 1: Deacetylation of substrate by incubation of HDAC enzymes with compounds
(§7) Stage 2: Development by addition of Developer to digest the deacetylated substrate, and generate the fluorescent color; Detection: 360/460 Ex/Em

Recombinant human HDAC6 = molecular target: T2, Recombinant human HDAC6 (Homo sapiens, UniProt Q9UBN7); assay: as above; settings: read-out: IC50 HDAC 6
T2 construct: GST (N); made in house; host or cells: Sf9 insect cells (baculovirus)
T2 sequence (Q9UBN7 1-1215): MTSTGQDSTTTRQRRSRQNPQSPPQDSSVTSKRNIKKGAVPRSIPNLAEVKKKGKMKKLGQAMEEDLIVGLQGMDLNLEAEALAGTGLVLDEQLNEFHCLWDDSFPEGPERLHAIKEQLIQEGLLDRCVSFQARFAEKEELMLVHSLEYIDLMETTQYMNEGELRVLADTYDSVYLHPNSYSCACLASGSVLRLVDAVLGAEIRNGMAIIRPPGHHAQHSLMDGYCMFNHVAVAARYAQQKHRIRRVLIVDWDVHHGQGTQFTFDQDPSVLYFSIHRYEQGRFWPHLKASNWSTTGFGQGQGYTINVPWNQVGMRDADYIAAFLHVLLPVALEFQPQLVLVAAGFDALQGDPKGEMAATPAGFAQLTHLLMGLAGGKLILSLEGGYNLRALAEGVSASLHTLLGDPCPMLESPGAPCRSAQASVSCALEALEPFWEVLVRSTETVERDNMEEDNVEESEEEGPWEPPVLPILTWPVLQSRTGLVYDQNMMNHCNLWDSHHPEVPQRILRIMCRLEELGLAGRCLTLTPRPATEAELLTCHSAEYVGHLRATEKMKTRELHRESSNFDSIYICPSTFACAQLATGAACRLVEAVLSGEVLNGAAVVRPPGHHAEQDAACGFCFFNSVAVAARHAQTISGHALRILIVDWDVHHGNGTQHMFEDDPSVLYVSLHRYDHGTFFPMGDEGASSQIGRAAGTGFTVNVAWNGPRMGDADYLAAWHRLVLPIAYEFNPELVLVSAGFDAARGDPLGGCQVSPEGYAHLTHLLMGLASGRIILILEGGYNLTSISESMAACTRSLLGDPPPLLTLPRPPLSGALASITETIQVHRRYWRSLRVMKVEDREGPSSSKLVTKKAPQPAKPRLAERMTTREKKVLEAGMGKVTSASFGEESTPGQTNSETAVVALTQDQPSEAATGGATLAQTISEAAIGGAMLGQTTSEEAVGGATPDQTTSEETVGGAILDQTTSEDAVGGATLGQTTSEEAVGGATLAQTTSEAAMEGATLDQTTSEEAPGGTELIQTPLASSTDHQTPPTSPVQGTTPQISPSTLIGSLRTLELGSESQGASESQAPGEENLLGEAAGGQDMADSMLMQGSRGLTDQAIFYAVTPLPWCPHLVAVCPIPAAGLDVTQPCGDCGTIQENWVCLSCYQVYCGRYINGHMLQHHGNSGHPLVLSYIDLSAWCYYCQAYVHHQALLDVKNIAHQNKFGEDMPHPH
Experimental: as §1, §2
Human HDAC5 (GenBank Accession No. NM_005474), full length with N-terminal GST tag, MW=150 kDa, expressed in baculovirus expression system. Recombinant human HDAC6 (GenBank Accession No. BC069243), full length, MW=180 kDa, was expressed by baculovirus in Sf9 insect cells using an N-terminal GST tag.
as §3, §4, §5, §6, §7

T1 sequence (Q13547 whole entry): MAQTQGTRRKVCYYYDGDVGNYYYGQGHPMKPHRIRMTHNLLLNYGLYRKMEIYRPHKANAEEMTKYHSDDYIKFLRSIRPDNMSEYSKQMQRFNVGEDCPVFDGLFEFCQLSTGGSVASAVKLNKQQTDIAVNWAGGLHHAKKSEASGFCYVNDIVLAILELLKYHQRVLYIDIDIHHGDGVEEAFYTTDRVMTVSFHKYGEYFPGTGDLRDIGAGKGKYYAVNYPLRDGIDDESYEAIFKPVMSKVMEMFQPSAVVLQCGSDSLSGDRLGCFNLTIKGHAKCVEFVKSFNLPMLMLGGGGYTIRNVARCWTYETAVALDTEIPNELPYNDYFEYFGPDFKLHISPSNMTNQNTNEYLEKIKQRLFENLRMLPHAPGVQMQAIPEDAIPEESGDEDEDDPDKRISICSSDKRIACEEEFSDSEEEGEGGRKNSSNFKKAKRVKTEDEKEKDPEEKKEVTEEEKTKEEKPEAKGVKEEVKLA

SMILES	IC50 (Human HDAC1) [µM]	IC50 (Recombinant human HDAC6) [µM]
COc1ccc(N(Cc2ccc(C(=O)NO)cc2)c2ccc(N3CCOCC3)cn2)nc1 [Example AA, N-Hydroxy-4-(((5-methoxypyridin-2-yl)(5-morpholinopyridin-2-yl)amino)methyl)benzamide]	1 to 10	≤ 0.5
O=C(NO)c1ccc(CN(c2ccccn2)c2nccc3sccc23)cc1 [Example BB, N-Hydroxy-4-((pyridin-2-yl(thieno[3,2-c]pyridin-4-yl)amino)methyl)benzamide]	1 to 10	≤ 0.5
Cc1cccc(N(Cc2ccc(C(=O)NO)cc2)c2ccc(N3CCOCC3)cn2)n1 [Example CC, N-Hydroxy-4-(((6-methylpyridin-2-yl)(5-morpholinopyridin-2-yl)amino)methyl)benzamide]	> 10	0.5 to 1
O=C(NO)c1ccc(CN(c2ccncn2)c2cnccn2)cc1 [Example DD, N-Hydroxy-4-{[(pyrazin-2-yl)(pyrimidin-4-yl)amino]methyl}benzamide]	1 to 10	≤ 0.5
O=C(NO)c1ccc(CN(c2ccncn2)c2cnccn2)c(F)c1 [Example EE]	1 to 10	≤ 0.5
O=C(NO)c1ccc(CN(c2ccncn2)c2cnccn2)nc1 [Example FF, N-Hydroxy-6-{[(pyrazin-2-yl)(pyrimidin-4-yl)amino]methyl}pyridine-3-carboxamide]	> 10	≤ 0.5
Cc1nnc(N(Cc2ccc(C(=O)NO)cc2)c2ccccn2)s1 [Example H, N-Hydroxy-4-(((5-methyl-1,3,4-thiadiazol-2-yl)(pyridin-2-yl)amino)methyl)benzamide]	> 10	≤ 0.5
O=C(NO)c1ccc(CN(c2cnccn2)c2cnccn2)c(F)c1 [Example HH, 4-{[Bis(pyrazin-2-yl)amino]methyl}-3-fluoro-N-hydroxybenzamide]	1 to 10	≤ 0.5
O=C(NO)c1ccc(CN(c2ccccn2)c2nc3ccccc3o2)cc1 [Example I, 4-((Benzo[d]oxazol-2-yl(pyridin-2-yl)amino)methyl)-N-hydroxybenzamide]	1 to 10	≤ 0.5
O=C(NO)c1ccc(CN(c2cnccn2)c2cnccn2)nc1 [Example II, 6-{[Bis(pyrazin-2-yl)amino]methyl}-N-hydroxypyridine-3-carboxamide]	1 to 10	≤ 0.5
Cn1c(N(Cc2ccc(C(=O)NO)cc2)c2ccccn2)nc2ccccc21 [Example J, N-Hydroxy-4-(((1-methyl-1H-benzo[d]imidazol-2-yl)(pyridin-2-yl)amino)methyl)benzamide]	> 10	≤ 0.5
COc1cccnc1N(Cc1ccc(C(=O)NO)cc1)c1cnccn1 [Example JJ, N-Hydroxy-4-{[(3-methoxypyridin-2-yl)(pyrazin-2-yl)amino]methyl}benzamide]	1 to 10	≤ 0.5
O=C(NO)c1ccc(CN(c2ccccn2)c2ncns2)cc1 [Example K, N-Hydroxy-4-((pyridin-2-yl(1,2,4-thiadiazol-5-yl)amino)methyl)benzamide]	> 10	≤ 0.5
COc1cccnc1N(Cc1ccc(C(=O)NO)cc1F)c1cnccn1 [Example KK, 3-Fluoro-N-hydroxy-4-{[(3-methoxypyridin-2-yl)(pyrazin-2-yl)amino]methyl}benzamide]	1 to 10	≤ 0.5
O=C(NO)c1ccc(CN(c2ccc(F)cn2)c2cnccn2)cc1 [Example L, 4-(((5-Fluoropyridin-2-yl)(pyrazin-2-yl)amino)methyl)-N-hydroxybenzamide]	> 10	≤ 0.5
COc1cccnc1N(Cc1ccc(C(=O)NO)cn1)c1cnccn1 [Example LL, N-Hydroxy-6-{[(3-methoxypyridin-2-yl)(pyrazin-2-yl)amino]methyl}pyridine-3-carboxamide]	> 10	≤ 0.5
Cc1noc(N(Cc2ccc(C(=O)NO)cc2)c2ccc(F)cn2)n1 [Example M, 4-(((5-Fluoropyridin-2-yl)(3-methyl-1,2,4-oxadiazol-5-yl)amino)methyl)-N-hydroxybenzamide]	> 10	≤ 0.5
O=C(NO)c1ccc(CN(c2cnccn2)c2cccnn2)cc1 [Example MM, N-Hydroxy-4-{[(pyrazin-2-yl)(pyridazin-3-yl)amino]methyl}benzamide]	> 10	≤ 0.5
Cn1c(N(Cc2ccc(C(=O)NO)cc2)c2ccc(F)cn2)nc2ccccc21 [Example N, 4-(((5-Fluoropyridin-2-yl)(1-methyl-1H-benzo[d]imidazol-2-yl)amino)methyl)-N-hydroxybenzamide]	> 10	≤ 0.5
O=C(NO)c1ccc(CN(c2cnccn2)c2cccnn2)c(F)c1 [Example NN, 3-Fluoro-N-hydroxy-4-{[(pyrazin-2-yl)(pyridazin-3-yl)amino]methyl}benzamide]	> 10	≤ 0.5
Cn1ccc(N(Cc2ccc(C(=O)NO)cc2)c2ccc(F)cn2)n1 [Example O, 4-(((5-Fluoropyridin-2-yl)(1-methyl-1H-pyrazol-3-yl)amino)methyl)-N-hydroxybenzamide]	> 10	≤ 0.5
Cc1nsc(N(Cc2ccc(C(=O)NO)cc2)c2cnccn2)n1 [Example OO, N-Hydroxy-4-{[(3-methyl-1,2,4-thiadiazol-5-yl)(pyrazin-2-yl)amino]methyl}benzamide]	1 to 10	≤ 0.5
O=C(NO)c1ccc(CN(c2ccc(F)cn2)c2nc3ccccc3o2)cc1 [Example P, 4-((Benzo[d]oxazol-2-yl(5-fluoropyridin-2-yl)amino)methyl)-N-hydroxybenzamide]	> 10	≤ 0.5
COc1ccnc(N(Cc2ccc(C(=O)NO)cc2)c2cnccn2)c1 [Example PP, N-Hydroxy-4-{[(4-methoxypyridin-2-yl)(pyrazin-2-yl)amino]methyl}benzamide]	1 to 10	≤ 0.5
Cn1ccc(N(Cc2ccc(C(=O)NO)cc2)c2cc(-c3ccc(F)cc3)ccn2)n1 [Example Q, 4-(((4-(4-Fluorophenyl)pyridin-2-yl)(1-methyl-1H-pyrazol-3-yl)amino)methyl)-N-hydroxybenzamide]	1 to 10	≤ 0.5
Cc1nsc(N(Cc2ccc(C(=O)NO)cc2)c2ccc(F)cn2)n1 [Example R, 4-(((5-Fluoropyridin-2-yl)(3-methyl-1,2,4-thiadiazol-5-yl)amino)methyl)-N-hydroxybenzamide]	> 10	≤ 0.5
Cc1nsc(N(Cc2ccc(C(=O)NO)cc2)c2cc(-c3ccc(F)cc3)ccn2)n1 [Example S, 4-(((4-(4-Fluorophenyl)pyridin-2-yl)(3-methyl-1,2,4-thiadiazol-5-yl)amino)methyl)-N-hydroxybenzamide]	> 10	1 to 10
O=C(NO)c1ccc(CN(c2ccccn2)c2nc3ccccc3s2)cc1 [Example V, 4-((Benzo[d]thiazol-2-yl(pyridin-2-yl)amino)methyl)-N-hydroxybenzamide]	–	≤ 0.5
